{"source": "ChEMBL document CHEMBL5356957", "about": "“Design, synthesis, biological evaluation and molecular docking of alkoxyaurones as potent pancreatic lipase inhibitors” (Bioorg Med Chem Lett, 2024)", "key": {"[1]": {"target": "T1, Pancreatic triacylglycerol lipase (Homo sapiens, UniProt P16233)", "T1 sequence (P16233 whole entry)": "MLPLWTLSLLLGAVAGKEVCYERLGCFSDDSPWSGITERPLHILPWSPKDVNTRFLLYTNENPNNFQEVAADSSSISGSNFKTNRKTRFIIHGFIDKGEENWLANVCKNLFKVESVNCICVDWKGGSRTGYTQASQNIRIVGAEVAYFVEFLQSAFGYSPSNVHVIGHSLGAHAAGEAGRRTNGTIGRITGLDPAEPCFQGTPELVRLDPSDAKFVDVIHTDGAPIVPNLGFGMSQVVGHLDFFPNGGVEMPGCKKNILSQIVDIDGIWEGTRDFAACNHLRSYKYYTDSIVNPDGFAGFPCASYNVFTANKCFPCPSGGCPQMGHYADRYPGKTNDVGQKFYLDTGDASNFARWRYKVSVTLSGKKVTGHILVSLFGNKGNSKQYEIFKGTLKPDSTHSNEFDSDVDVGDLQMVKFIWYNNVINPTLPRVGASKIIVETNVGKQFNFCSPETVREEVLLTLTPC", "experiment": "Inhibition of pancreatic lipase (unknown origin) by spectrophotometeric analysis"}, "[2]": {"target": "T2, Pancreatic triacylglycerol lipase (Homo sapiens) (UniProt P16233)", "T2 sequence (whole entry)": "T1 sequence (P16233 whole entry)", "description": "Binding affinity to pancreatic lipase (unknown origin) assessed as Stem-Volmer quenching constant by fluorescence quenching based spectrophotometer analysis"}, "[3]": {"target": "T2, Pancreatic triacylglycerol lipase (Homo sapiens)", "remark": "listed apart in the source", "description": "Binding affinity to pancreatic lipase (unknown origin) assessed as quenching constant by fluorescence quenching based spectrophotometer analysis"}}}
{"smiles": "O=C1/C(=C/c2ccccc2)Oc2cc(O)cc(O)c21", "values": [{"measurement": "IC50", "setting": "[1]", "result": 58.8, "unit": "µM"}, {"measurement": "KSV", "setting": "[2]", "result": "7.16 10^4L/mol"}, {"measurement": "Kq", "setting": "[3]", "result": "4.5 10^13L/mol/s"}]}
{"smiles": "O=c1c(O)c(-c2ccc(O)c(O)c2)oc2cc(O)cc(O)c12", "values": [{"measurement": "KSV", "setting": "[2]", "result": "13.3 10^4L/mol"}, {"measurement": "Kq", "setting": "[3]", "result": "8.35 10^13L/mol/s"}]}
